Consider three compounds from patent US9187421B2, “Etomidate analogues that do not inhibit adrenocortical steroid synthesis” (THE GENERAL HOSPITAL CORPORATION, priority 2009, dated 2015).

Entries after “also recorded” stand apart in the source; their conditions may differ.

In series [1] the test system is critically ill trauma patients. Particulars: critically ill trauma patients sedated with etomidate vs. benzodiazepines (28%); Watt and Ledingham 1984; cited from earlier work.
Series [2] addresses T1, human α1β2γ2L GABAA receptors (Homo sapiens, UniProt P14867+P47870).
T1 construct: expressed in transfected cells; host or cells: Xenopus laevis oocytes injected with mRNA (subunit ratio 1:1:2)
The settings on record: 4 μM etomidate, inventors' previous study; cited from earlier work.

In series [3] the test system is rats. Description: Loss of righting reflex in rats after IV bolus. Format: in vivo, Sprague-Dawley rats. The settings on record: for anesthetic toxicity in rats: highest doses; for slope of duration of anesthesia versus logarithm of anesthetic dose: time to spontaneous righting; for onset time for LORR / onset time for LORR, range: IV, equihypnotic doses 4×ED50 (28 mg/kg carboetomidate, 4 mg/kg etomidate); for time to LORR after IV bolus (in words): doses sufficient to produce LORR. The protocol: Rats: Rats were briefly restrained in a 3-inch diameter, 9-inch long acrylic chamber with a tail exit port. The desired dose of carboetomidate in dimethyl sulfoxide (DMSO; typically at 40 mg/ml) was injected through a lateral tail vein catheter followed by an approximately 1-ml normal saline flush. After injection, rats were removed from the restraint device and turned supine. […] A stopwatch was used to measure the duration of LORR, which was defined as the time from carboetomidate injection until the animal spontaneously righted itself. The ED50 for LORR on bolus administration was determined from the dose dependence of LORR using the method of Waud.26 Onset time for LORR was determined separately by injecting rats with 28 mg/kg of carboetomidate (40 mg/ml in DMSO) or 4 mg/kg of etomidate (5.7 mg/ml in DMSO) through a lateral tail vein catheter followed by an approximately 1-ml normal saline flush. After injection, rats were immediately removed from the restraint device and repeatedly turned supine until they no longer spontaneously righted. The onset time was defined as the time from injection until LORR occurred.
Etomidate or carboetomidate was administered to Sprague Dawley rats as an IV bolus into their tail veins. […] LORR was defined as the time from drug injection until the animal spontaneously righted itself. The ED50 for LORR upon bolus anesthetic administration was determined from the anesthetic dose-dependence of LORR.

The test system of series [4] is rats. Kind of series: Rat adrenocortical suppression (ACTH1-24-stimulated serum corticosterone). The settings on record: IV bolus 2×ED50 (14 mg/kg carboetomidate, 2 mg/kg etomidate), 15 min after ACTH1-24.
Description: Immediately after weighing and IV catheter placement, dexamethasone (0.2 mg/kg IV; American Regent, Shirley, N.Y.) was administered to each rat to inhibit endogenous adrenocorticotropic hormone (ACTH) release, to suppress baseline corticosterone production, and to inhibit the variable stress response to restraint and handling. […] The concentrations of carboetomidate and etomidate in DMSO were 40 and 5.7 mg/ml, respectively. Immediately after hypnotic or vehicle administration, ACTH1-24 (25 μg/kg; Sigma-Aldrich Chemical Co, St. Louis, Mo.) was given intravenously to stimulate corticosterone production. Fifteen minutes later, a second blood sample was drawn to measure the ACTH1-24-stimulated serum corticosterone concentration. ACTH1-24 was dissolved in 1 mg/ml of deoxygenated water as stock, aliquoted, and frozen (−20° C.); a fresh aliquot was thawed just before each use. Rats in all three groups (carboetomidate, etomidate, and vehicle) received the same volume of DMSO (350 μl/kg).
Blood samples were allowed to clot at room temperature (10-60 min) before centrifugation at 3,500 g for 5 min. Serum was carefully expressed from any resulting superficial fibrin clot using a clean pipette tip before a second centrifugation at 3,500 g for 5 min. After the second centrifugation, the resultant clot-free serum layer was transferred to a fresh vial for a final, high-speed centrifugation (16,000 g, for 5 min) to pellet any contaminating red blood cells or particulates. The serum was transferred to a clean vial and promptly frozen (−20° C.) pending corticosterone measurement. After thawing and heat inactivation of corticosterone-binding globulins (65° C. for 20 min), serum baseline and ACTH1-24-stimulated corticosterone concentrations were quantified using an enzyme-linked immunosorbent assay (Diagnostic Systems Laboratories, Webster, Tex.) and a 96-well plate reader (Molecular Devices, Sunnyvale, Calif.).
Male Sprague Dawley rats were pre-treated with dexamethasone to inhibit endogenous ACTH production and minimize baseline serum corticosterone concentrations. […]
A further series concerns humans. Particulars: literature (Arden et al. 1986); cited from earlier work.
Series [5] has as its system Xenopus laevis tadpoles. The settings on record: literature (Husain et al. 2003); cited from earlier work.
The test system of series [6] is rats. Description: Rat hemodynamics (mean blood pressure). The settings on record: IV; for effect on mean blood pressure relative to DMSO vehicle (FIG. 7B): 14 mg/kg carboetomidate, 2 mg/kg etomidate (2×ED50); for effect on mean blood pressure, comparison of three anesthetics (FIG. 7A): twice ED50 for LORR (8 mg/kg propofol, 2 mg/kg etomidate, 14 mg/kg carboetomidate). Here is the method: Femoral arterial catheters, tunneled between the scapulas, were preimplanted by the vendor (Charles River Laboratories). Animals were fully recovered from the placement procedure on arrival.
On the day of study, after weighing and lateral tail vein IV catheter placement, rats were restrained in the acrylic tube with a tail exit port and allowed to acclimate for approximately 10 to 20 min before data collection. […] All data were acquired and analyzed using LabView Software (version 8.5 for Macintosh OS X; National Instruments).
Carboetomidate (40 mg/ml) dissolved in DMSO, etomidate (5.7 mg/ml) dissolved in DMSO, or DMSO vehicle alone as a control was administered through the tail vein catheter followed by approximately 1-ml normal saline flush.
The average mean blood pressure was calculated at each 30-second epoch during this study period.

For series [7], the target named is T2, etomidate-insensitive mutant α1β2M286Wγ2L GABAA receptors (Homo sapiens, UniProt P14867+P47870, M310W).
T2 construct: expressed in transfected cells; host or cells: Xenopus laevis oocytes injected with mRNA (subunit ratio 1:1:2)
T2 sequence (P47870 26-512 M310W): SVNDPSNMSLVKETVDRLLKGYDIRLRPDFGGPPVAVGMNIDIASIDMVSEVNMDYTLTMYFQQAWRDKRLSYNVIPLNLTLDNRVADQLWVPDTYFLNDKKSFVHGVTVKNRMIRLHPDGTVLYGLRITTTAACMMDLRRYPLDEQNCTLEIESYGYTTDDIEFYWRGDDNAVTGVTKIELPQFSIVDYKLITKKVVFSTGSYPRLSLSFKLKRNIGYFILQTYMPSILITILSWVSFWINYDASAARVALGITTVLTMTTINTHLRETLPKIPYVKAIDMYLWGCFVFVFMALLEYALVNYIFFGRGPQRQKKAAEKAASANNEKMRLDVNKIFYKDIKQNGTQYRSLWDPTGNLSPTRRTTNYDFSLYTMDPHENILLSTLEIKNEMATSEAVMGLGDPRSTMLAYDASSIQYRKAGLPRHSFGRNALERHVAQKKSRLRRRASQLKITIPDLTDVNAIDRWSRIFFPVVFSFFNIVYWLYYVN
T2 sequence (P14867 28-456): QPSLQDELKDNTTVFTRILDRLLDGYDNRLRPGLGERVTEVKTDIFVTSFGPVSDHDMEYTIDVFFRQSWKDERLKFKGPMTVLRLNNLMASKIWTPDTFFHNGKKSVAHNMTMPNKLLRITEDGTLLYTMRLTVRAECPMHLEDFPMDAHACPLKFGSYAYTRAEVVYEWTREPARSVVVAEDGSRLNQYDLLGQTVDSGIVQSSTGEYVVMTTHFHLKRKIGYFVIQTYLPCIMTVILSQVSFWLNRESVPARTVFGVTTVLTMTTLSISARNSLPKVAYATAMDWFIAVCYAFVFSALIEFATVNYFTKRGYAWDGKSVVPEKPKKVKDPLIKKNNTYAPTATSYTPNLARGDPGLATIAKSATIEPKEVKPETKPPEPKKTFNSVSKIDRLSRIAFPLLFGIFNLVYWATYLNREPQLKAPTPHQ
T2 sequence (P18507 40-475 partner): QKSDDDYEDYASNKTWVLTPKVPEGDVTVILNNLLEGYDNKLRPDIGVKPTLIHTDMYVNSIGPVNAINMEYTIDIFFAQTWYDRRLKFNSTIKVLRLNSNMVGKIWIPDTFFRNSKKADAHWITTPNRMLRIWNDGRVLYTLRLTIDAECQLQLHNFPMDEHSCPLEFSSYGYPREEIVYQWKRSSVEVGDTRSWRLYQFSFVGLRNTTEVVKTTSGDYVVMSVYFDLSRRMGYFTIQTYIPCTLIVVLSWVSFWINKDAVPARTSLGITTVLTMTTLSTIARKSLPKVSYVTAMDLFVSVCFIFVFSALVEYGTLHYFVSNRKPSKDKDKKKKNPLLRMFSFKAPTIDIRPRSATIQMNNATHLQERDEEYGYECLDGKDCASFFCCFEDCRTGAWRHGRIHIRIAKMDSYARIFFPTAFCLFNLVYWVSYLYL
Kind of series: GABAA receptor electrophysiology, etomidate-insensitive mutant receptors in Xenopus oocytes. Format: cell-based. The settings on record: 10 μM compound.
Description: Stage 4 and 5 oocytes were injected with messenger RNA encoding the α1, β2 (or β2M286W), and γ21 subunits of the human GABAA receptor (˜40 ng of messenger RNA total at a subunit ratio of 1:1:2). This messenger RNA was transcribed from complementary DNA encoding for GABAA receptor α1, β2 (or β2M286W), and γ21 subunits using the mMESSAGE mMACHINE High Yield Capped RNA Transcription Kit (Ambion, Austin, Tex.). Injected oocytes were incubated in ND-96 buffer solution (96 mM NaCl, 2 mM KCl, 1 mM CaCl2, 0.8 mM MgCl2, 10 mM HEPES, pH 7.5) containing 50 U/ml of penicillin and 50 μg/ml of streptomycin at 17° C. for at least 18 h before electrophysiologic experiments.
For each oocyte, the concentration of GABA that produces 5-10% of the maximal current response (EC5-10 GABA) was determined by measuring the peak current responses evoked by a range of GABA concentrations (in ND-96 buffer) and comparing them with the maximal peak current response evoked by 1 mM GABA. […]

In series [8] the test system is Xenopus laevis tadpoles. Kind of series: Tadpole loss of righting reflex (LORR) assay. The class given is in vivo. The protocol: Tadpoles: Groups of five early prelimb-bud stage Xenopus laevis tadpoles were placed in 100 ml of oxygenated water buffered with 2.5 mM Tris HCl buffer (pH. 7.4) and containing a concentration of carboetomidate ranging from 1 to 40[…]. Tadpoles were tipped manually every 5 min with a flame-polished pipette until the response stabilized. […] At the end of each study, tadpoles were returned to fresh water to ensure reversibility of hypnotic action. The EC50 for LORR was determined from the carboetomidate concentration dependence of LORR using the method of Waud D R, J Pharmacol Exp Ther (1972) 183: 577-607, content of which is herein incorporated by reference.
Tadpoles: The tadpole loss of righting reflex assay was used to test for anesthetic activity. Groups of 5 early prelimb-bud stage Xenopus laevis tadpoles were placed in 100 ml of oxygenated water buffered with 2.5 mM Tris HCl buffer (pH=7) and containing a concentration of carboetomidate ranging from 1-40 μM. See Scheme 1, above, for structure of Carboetomidate. Tadpoles were tipped manually every 5 min with a flame polished pipette. […] At all concentrations, this loss of righting reflex response stabilized within 30 min of carboetomidate exposure. At the end of each study, tadpoles were returned to fresh water to ensure reversibility of hypnotic action.

Series [9] concerns the target T1, human α1β2γ2L GABAA receptors. Kind of series: GABAA receptor electrophysiology, wild-type receptors in Xenopus oocytes (two-electrode voltage clamp). The class given is cell-based. The settings on record: 10 μM compound. The protocol: Adult female Xenopus laevis frogs were anesthetized with 0.2% tricaine (ethyl-m-aminobenzoate) and hypothermia. Ovary lobes were then excised through a small laparotomy incision and placed in OR-2 solution (82 mM NaCl, 2 mM KCl, 2 mM MgCl2, 5 mM HEPES, pH 7.5) containing collagenase 1A (1 mg/ml) for 3 h to separate oocytes from connective tissue.
Stage 4 and 5 oocytes were injected with messenger RNA encoding the α1, β2 (or β2M286W), and […] subunits of the human GABAA receptor (˜40 ng of messenger RNA total at a subunit ratio of 1:1:2). […]
All electrophysiologic recordings were performed using the whole cell two-electrode voltage-clamp technique. […] Current responses were recorded using Clampex 9.2 software (Axon Instruments) and processed using a Bessel (8-pole) low-pass filter with a cutoff at 50 Hz using Clampfit 9.2 software (Axon Instruments).
For each oocyte, the concentration of GABA that produces 5-10% of the maximal current response (EC5-10 GABA) was determined by measuring the peak current responses evoked by a range of GABA concentrations (in ND-96 buffer) and comparing them with the maximal peak current response evoked by 1 mM GABA. The effect of carboetomidate on EC5-10 GABA-evoked currents was then assessed by first perfusing the oocyte with EC5-10 GABA for 90 s and then measuring the control peak evoked current. […]

T1 sequence (P47870 25-512 limits assumed): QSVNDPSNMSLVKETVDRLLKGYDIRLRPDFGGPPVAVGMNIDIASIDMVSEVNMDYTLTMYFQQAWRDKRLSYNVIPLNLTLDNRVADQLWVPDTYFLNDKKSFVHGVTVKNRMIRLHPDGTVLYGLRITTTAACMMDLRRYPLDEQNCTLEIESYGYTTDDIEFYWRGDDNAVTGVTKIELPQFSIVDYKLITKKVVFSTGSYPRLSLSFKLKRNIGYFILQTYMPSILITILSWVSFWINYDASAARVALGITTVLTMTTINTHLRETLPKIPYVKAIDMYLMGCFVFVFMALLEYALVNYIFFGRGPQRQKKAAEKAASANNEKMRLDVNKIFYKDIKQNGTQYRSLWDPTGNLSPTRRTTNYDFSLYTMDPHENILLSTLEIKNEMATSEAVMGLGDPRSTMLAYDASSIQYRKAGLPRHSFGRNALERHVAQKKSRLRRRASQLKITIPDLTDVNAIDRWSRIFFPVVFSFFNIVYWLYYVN
T1 sequence (P14867 28-456): as the sequence (P14867 28-456) above
T1 sequence (P18507 40-475 partner): as the sequence (P18507 40-475 partner) above

The mortality is the share of the test organisms that died. Regarding `CCOC(=O)c1cncn1C(C)c1ccccc1` (stereo not shown) [etomidate, ethyl 3-(1-phenylethyl)imidazole-4-carboxylate], the mortality in series [1] is listed as 77%. Moreover, the “magnitude of potentiation of GABAA receptor currents” value in series [2] is recorded as 660±240%. In addition, in the series with rats [3] (Rattus norvegicus, rats, IV bolus, read-out: ED50 for LORR following bolus administration), the ED50 stood at 1 ± 0.03 mg/kg. Besides, in the series with rats [3] (IV bolus), the “anesthetic toxicity in rats” value is reported as “no obvious anesthetic toxicity”. Also, the “slope of duration of anesthesia versus logarithm of anesthetic dose” value in the series on rats [3] (rats, IV bolus) is 27±7. In the series with rats [3] (rats), the “onset time for LORR” value was determined as 4.5 ± 0.6 s; the “onset time for LORR, range” value is 4 to 5 s; the “time to LORR after IV bolus (in words)” value was “within several seconds”. Moreover, the “ACTH1-24-stimulated serum corticosterone concentration versus vehicle (in words)” value with rats [4] is on record as “significantly reduced”. In addition, the “concentration inducing loss of responsiveness in humans” value with humans was roughly 2 µM. Moreover, the “concentration inducing loss of righting reflex in tadpoles” value in the series on Xenopus laevis tadpoles [5] is roughly 2 µM. Besides, in the series on rats [6], the “effect on mean blood pressure relative to DMSO vehicle (FIG. 7B)” value is “significantly reduced mean blood pressure relative to vehicle” and the “effect on mean blood pressure, comparison of three anesthetics (FIG. 7A)” value (“effect on mean blood pressure … (FIG. 7A)” for short) is listed as “magnitude of this decrease was less”.
In the case of `CC(C)c1cccc(C(C)C)c1O` [propofol, reference compound], the “effect on mean blood pressure … (FIG. 7A)” value in the series on rats [6] was “mean blood pressure decreased”.
Consider “(R)-1-(1-phenylethyl)-1H-pyrrole-2-carboxylate [carboetomidate]”, for which, in the series with rats [3] (IV bolus), the “anesthetic toxicity in rats” value was “no obvious anesthetic toxicity”. In addition, in the series on rats [3] (rats, IV bolus), the “ED50 for LORR following bolus administration” value is 7 ± 2 mg/kg and the “slope of duration of anesthesia versus logarithm of anesthetic dose” value is reported as 16±4. Further, in the series on rats [3] (rats), the “onset time for LORR” value is 33 ± 22 s; the “onset time for LORR, range” value lay within 10 to 63 s; the “time to LORR after IV bolus (in words)” value was “within several seconds”. Also, in the series on rats [4], the “ACTH1-24-stimulated serum corticosterone concentration versus vehicle (in words)” value is “not different from those that had received only vehicle; also recorded: relatively unchanged versus vehicle”. Further, the “effect on amplitude of GABA-evoked currents” value in series [7] (0.3 μM GABA, mutant M286W) is “little effect”. Moreover, the “enhancement of currents mediated by etomidate-insensitive mutant receptors” value in series [7] (EC5-10 GABA) is given as −9±16%. The toxicity in tadpoles entry in the series with Xenopus laevis tadpoles [8] (1-40 μM, recovery in fresh water) was “No evidence of toxicity was observed”. The EC50 with Xenopus laevis tadpoles [8] (LORR, Xenopus laevis tadpoles, quantal method of Waud, read-out: anesthetic EC50 (concentration at which 50% of tadpoles were anesthetized)) was 5.4 ± 0.5 µM. For the same compound, the “time for LORR response to stabilize” value in the series on Xenopus laevis tadpoles [8] (all concentrations (1-40 μM)) was no more than 30 min. Further, the “fraction of tadpoles anesthetized” value in the series on Xenopus laevis tadpoles [8] (highest concentrations, 10-40 μM) was “all tadpoles were anesthetized”. Further, the “enhancement of amplitudes of GABA-evoked currents” value in series [9] (3 μM GABA, wild-type) is 4 fold. Further, the “enhancement (potentiation) of currents mediated by wild-type receptors” value in series [9] (EC5-10 GABA) amounted to 390±80%. Besides, in the series with rats [6], the “effect on mean blood pressure relative to DMSO vehicle (FIG. 7B)” value was “not significantly greater than that of DMSO vehicle alone” and the “effect on mean blood pressure … (FIG. 7A)” value is recorded as “magnitude of this decrease was less; also recorded: depresses blood pressure significantly less than propofol or etomidate”.
